Laboratory results published in US10493026B2, “Process for making tablet using radiofrequency and lossy coated particles” (Johnson & Johnson Consumer Inc., priority 2017, dated 2019).
Where “and” joins values, the source holds several entries; their conditions need not be identical. Equal entries are not always repeated.

Assay: Permittivity (Q, e′, e″) by impedance analyzer, capacitance method
Type: physicochemical
Settings: 27 MHz
Text: The property of permittivity is the measure of the resistance to forming an electric field. For purposes of comparing materials in air, it is often convenient to describe the permittivity of material in air where the permittivity is more specifically called “relative permittivity” or €r. This is a complex number represented by the following equation: €r=e′−je″ where e′ (the real portion of the complex number) is the dielectric constant (energy storage) and e″ (the imaginary portion of the complex number) is the dielectric loss or dissipation factor (energy dissipated as heat). The ratio of dielectric loss (e″) over the dielectric constant (e′) is called the loss tangent (tan δ) or power factor. […] The Q value is affected by physical and chemical properties such as density (porosity/particle size), moisture (conductivity), temperature, and molecular polarizability. The measurements obtained by this method can eliminate the need to measure and evaluate these properties independently.
Permittivity values (Q, e′, e″) were measured using an Agilent Impedance Analyzer at 27Mhz using a capacitance method wherein a fixture with a bottom fixed plate and top adjustable plate with a torque limiter which lightly compresses a cylindrical sample container to remove any air. During testing, the container is over filled with material and then carefully leveled off to avoid void spaces. A lid is placed on top to temporarily seal material within the container. Once a measurement is made, custom software calculates the difference between the sample and the configuration empty.

Row | Compound | Loss Tangent (Table 1A) | e′ (Table 1A) | e″ (Table 1A) | Loss Tangent (Table 1B) | e′ (Table 1B) | e″ (Table 1B)
1 | OC[C@@H](O)[C@@H](O[C@H]1O[C@H](CO)[C@@H](O)[C@H](O)[C@H]1O)[C@H](O)[C@@H](O)CO [Maltitol, NF (SweetPearl P300DC), Maltitol] | 0.0035 | 1.703 | 0.006 | 0.0022 | 1.6214 | 0.0035
2 | OC[C@@H](O)[C@@H](O)[C@H](O)[C@@H](O)CO [Sorbitol Powder, NF, Sorbitol] | 0.0358 and 0.0462 and 0.0361 | 1.960 and 2.097 and 1.803 | 0.0701 and 0.0969 and 0.0650 | – | – | –
3 | OC[C@@H](O)[C@@H](O)[C@H](O)[C@H](O)CO [Mannitol NF (Pearlitol 200SD), Mannitol] | 0.0028 | 1.410 | 0.004 | – | – | –
